Assay results as given in US20040259135A1, “Biosynthetic labeling and separation of RNA” (priority 2003, published 2004).

How the values were obtained:
[1] = tested on: T gondii; assay: Growth of T gondii within human foreskin fibroblast cells in media containing 2,4-dithiouracil; assay type: cell-based, Toxoplasma gondii; conditions: 5 μM to 2 mM 2,4-dithiouracil, even at highest concentration (2 mM); replication monitored over time
Experimental: (§1) Methods and Results: Initial experiments assayed the growth of T gondii within human foreskin fibroblast cells in media containing a range of concentrations of 2,4-dithiouracil (5 μM to 2 mM). Equivalent numbers of parasites were used to infect host cells and the replication of the parasites in the different concentrations of 2,4-dithiouracil was monitored over time.

[2] = tested on: human foreskin fibroblast cells; assay: Growth of human foreskin fibroblast host cells in media containing 2,4-dithiouracil; assay type: cell-based; conditions: 5 μM to 2 mM 2,4-dithiouracil, even at highest concentration (2 mM)
Experimental: as §1

[3] = tested on: Toxoplasma RNA; assay: Incorporation of thiouracil into Toxoplasma RNA (HPDP-biotin labeling, northern blot probed with streptavidin-HRP); assay type: cell-based, Toxoplasma gondii; conditions: 6 hours
Experimental: (§2) To test for the incorporation of thiouracil into RNA, wild type (WT) parasites and mutants that lack the UPRT enzyme (UPRT(−)) were used to infect human foreskin fibroblasts in culture after which, the normal medium was replaced with medium containing 2 mM 2,4-dithiouracil. Following growth in this medium for 6 hours, the infected cells were harvested and RNA prepared by standard methods using Trizol reagent from Gibco-BRL.
(§3) The resulting RNA was incubated with HPDP-biotin (EZ-Link Biotin-HPDP (N-(6-(Biotinamido)hexyl)-3′-(2′-pyridyidithio)-propionamide) from Pierce Biotechnology) which specifically reacts with free thiols which are normally not present in RNA. For both RNA samples (WT and UPRT(−)) 25 μg of RNA was incubated with 50 μl of a 1 mg/ml Biotin-HPDP solution and Tris HCl/EDTA buffer (pH 7.4) for 1.5 hours. Biotinylated RNA was precipitated from any excess biotin by isopropanol precipitation and centrifugation. Approximately 2.5 μg of this material was resolved by agarose gel electrophoresis and transferred to a nitrocellulose filter, all by standard procedures. The resulting filter was then probed with streptavidin conjugated to horseradish peroxidase (Streptavidin-HRP) and the bound material detected with chemiluminescence (using the ECL kit from Amersham). […] The upper-most major band is from the large subunit of the human ribosome.

[4] = tested on: human RNA; assay: Incorporation of thiouracil into RNA of human foreskin fibroblast host cells (HPDP-biotin, streptavidin-HRP northern blot); assay type: cell-based; conditions: Toxoplasma-infected human foreskin fibroblasts, 2 mM, 6 hours
Experimental: as §2, §3

[5] = tested on: HeLa cells; assay: Incorporation of thiouracil into RNA of HeLa cells with or without the Toxoplasma UPRT gene (northern blot); assay type: cell-based, human; conditions: 6 hours
Excerpt: Methods and Results: The coding region of the Toxoplasma UPRT gene was incorporated into the retroviral vector known as LNCX (Miller & Rosman (1989) BioTechniques 7:980-990), placing the UPRT gene under control of the cytomegalovirus immediate-early promoter. This construct was introduced into HeLa cells and cell lines that had stably incorporated the vector were selected using neomycin. Cells that survived this selection and non-transfected HeLa cells were both grown in the presence of 2,4-dithiouracil for 6 hours. RNA was isolated from these cells and labeled with HPDP-biotin as described above. Incorporation of thiouracil was detected by northern blot as described above.

[6] = biological target: UPRT of the protozoan Toxoplasma gondii (Toxoplasma gondii, UniProt Q26998); conditions: purified enzyme; 100 different compounds tested in previous studies; cited from earlier work
Sequence of UPRT of the protozoan Toxoplasma gondii (Q26998 whole entry): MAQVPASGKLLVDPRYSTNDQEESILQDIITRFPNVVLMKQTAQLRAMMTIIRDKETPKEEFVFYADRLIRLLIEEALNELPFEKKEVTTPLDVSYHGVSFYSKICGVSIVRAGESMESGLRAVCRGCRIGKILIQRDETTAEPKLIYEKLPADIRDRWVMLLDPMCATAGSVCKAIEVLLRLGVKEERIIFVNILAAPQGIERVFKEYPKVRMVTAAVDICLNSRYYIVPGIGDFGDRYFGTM

Compound | growth defects of the parasites [1] | growth defects of the human cells [2] | incorporation of thiouracil into Toxoplasma RNA, UPRT dependence ([3]; WT versus mutants that lack the UPRT enzyme (UPRT(−)), 2 mM) | incorporation of thiouracil into Toxoplasma ribosomal RNA ([3]; wild type parasites in human foreskin fibroblasts, 2 mM 2,4-dithiouracil) | incorporation into human RNA [4] | incorporation of thiouracil into RNA ([5]; HeLa cells that had received the Toxoplasma UPRT gene) | incorporation of thiouracil into RNA ([5]; normal (non-transfected) HeLa cells) | substrate of purified UPRT (conversion into nucleoside monophosphate) [6]
Sc1ccnc(S)n1 [2,4-dithiouracil] | No growth defects | No growth defects | only in parasites with the UPRT enzyme | two of the three major bands detectable by ethidium staining of the RNA have thiouracil incorporated into them | not incorporated | good incorporation at a level similar to that seen with the parasites | lack the ability to incorporate the thiouracil | converted into UMP
O=c1[nH]cc(F)c(=O)[nH]1 [5-fluorouracil] |  |  |  |  |  |  |  | known toxic substrates
O=c1c[n+]([O-])cc[nH]1 [emimycin] |  |  |  |  |  |  |  | known toxic substrates
